{"source": "patent US20070059708A1", "about": "“Gene screen” (priority 2003, published 2007)", "system": "HT29 cells", "assay": "Optimisation of HT29 cell growth in butyrate as sole extraneous carbon source (cell counts)", "format": "cell-based, human", "details": "HT29 colon carcinoma cells, DMEM without glucose, multiple concentrations compared", "experimental": "We have compared the expression profiles of colon cells growing in either glucose or butyrate as a carbon source. HT 29 colon carcinoma cells were cultured in DMEM medium (Gibco) in the presence of 10% foetal calf serum, penicillin and streptomycin. Cells were either cultured in glucose alone as the sole carbon source, or in butyrate as the sole extraneous provided carbon source. […] Cells were cultured in either medium for multiple passages (typically 4). RNA was extracted from cells grown in each condition and used to probe an Affymetrix human 12 k array. The expression profile of cells cultured in each condition was compared and genes altered in expression by more than 2 fold are listed in Table 2.\nHT29 cells were seeded out into 19 wells (in 6 well plates) at a cell density of 0.5×10^6 cells per well (i.e. 500 000 cells per well) deduced with the aid of a Haemocytometer (Improved Neubauer). These cells were taken from T75-0.2 mM butyrate (NaB) DMEM flasks and allowed to adhere to the 6-well plates over 72 hrs also in 0.2 mM NaB DMEM with FCS and Penicillin/Streptomycin antibiotics. […]"}
{"smiles": "CCCC(=O)[O-].[Na+]", "note": "[butyrate, Sodium Butyrate]", "values": [{"measurement": "butyrate concentration optimal for cell culture", "result": 2, "unit": "mM"}]}
